Common to all, as to test: NCI-60 cell line screen, 48 h
For test [1], the system named is HCT-15 colon.
Test [2] concerns LOX IMVI melanoma.
In test [3] the test system is M14 melanoma.
Test [4] relates to MALME-3M melanoma.
Test [5] concerns NCI-H23 lung.
Test [6] relates to SK-MEL-5 melanoma.
Test [7] concerns TK-10 renal.
For test [8], the system named is HCC-2998 colon.
Test [9] deals with OVCAR-4 ovarian.

Where “and” joins values, the source holds several entries; their conditions need not be identical. Identical values can stand only once.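 Where inhibition never reached the appropriate level, the endpoint shown equals the highest concentration tested. Otherwise, values were interpolated linearly from a five-concentration, 48-hour dose response in 96-well plates. The concentration for 50% growth inhibition is given as GI50. TGI marks complete inhibition of growth.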

As for `COc1nc2c(OC)cccc2c(OC)c1C=O`, the TGI in test [1], in [2], in [3], in test [4], in [5] and in test [6] was > 100 µM in each case. The TGI in test [7] is > 100 µM.
Take `COc1ccc(OCC(=O)O)c2c1CCC(C(C)C)C2=O` (stereo not given): the TGI in test [8], in [2], in [3], in test [4], in test [5] and in test [9] was > 100 µM each time. The TGI in test [6] and in test [7] was > 100 µM throughout.
In the case of `CN/N=C(/Cc1occc(=O)c1O)C(=O)Nc1ccc(C)c(C)c1`, the TGI in test [8], in [1], in test [2], in test [3], in [4] and in test [5] was > 100 µM in each case. The TGI in test [9], in test [6] and in [7] was > 100 µM in each case.
As for `COC(=O)C1(C)C=C(Nc2ccccc2)C(=O)N1c1ccccc1` (stereo not given), the TGI in [8], in test [2], in [3], in test [4], in [5] and in test [9] was > 100 µM in each case. In addition, the TGI in [6] and in [7] was > 100 µM throughout.
Take `O=C1C2C(C(=O)N1O)N(Cc1ccccc1)C(=O)N2Cc1ccccc1` (stereo not given): the TGI in test [8], in test [1], in [2], in [3], in [4] and in [5] was > 100 µM throughout. For the same compound, the TGI in test [9], in test [6] and in test [7] was > 100 µM each time.
As to `C/C(CN1C(=O)c2ccccc2C1=O)=N\NS(=O)(=O)c1cccc([N+](=O)[O-])c1`, the TGI in test [8], in test [1], in test [3], in test [4], in [5] and in [9] was > 100 µM in each case. The TGI in test [6] and in test [7] was > 100 µM in each case.
As to `O=C1NC(=O)C(C(=O)C(=O)Nc2ccc(Br)cc2)C(=O)N1`, the TGI in test [8], in test [1], in [2], in test [3], in test [4] and in [5] was > 100 µM in each case. Further, the TGI in test [9] and in test [6] was > 100 µM each time.
As to `Oc1cccc2c1NC1=C(CCC/C1=C\c1ccccc1)C2`, the TGI in test [8], in [1], in test [2], in test [3], in test [4] and in test [5] was > 100 µM throughout. Also, the TGI in test [6] and in test [7] was > 100 µM in each case.
For `CCOC(=N)CC(=O)Nc1ccc(Cl)cc1`, the TGI in test [8], in test [1], in test [2], in [3], in test [4] and in [5] was > 100 µM each time. The TGI in test [9], in [6] and in test [7] was > 100 µM each time.
As for `O=S(=O)([O-])[O-].[OH3+].[OH3+].[OH3+].[Ru+2].c1ccccc1`, the GI50 in [8], in test [1], in test [3], in [4], in test [5] and in test [9] was > 100 µM each time. Further, the GI50 in test [6] and in test [7] was > 100 µM in each case. The TGI in [8], in [1], in [3], in [4], in test [5] and in test [9] was > 100 µM each time. Moreover, the TGI in [6] and in test [7] was > 100 µM in each case.
On to `O=C(CCN1CCN(c2cccc(Cl)c2)CC1)N1CCc2c([nH]c3ccccc23)C1c1cccnc1` (stereo not given), for which the GI50 is 2.91 µM in test [8]; 5.18 µM in test [1]; 6.5 µM in test [2]; 6.06 µM in test [3]; 14.9 µM in [4]; 11.2 µM in [5]. The GI50 in [9] was 4.23 µM; in test [6], 7.72 µM; in [7], 2.53 µM. Besides, the TGI in test [8] was 4.04 µM and 8.05 µM; in test [1], 18 µM; in test [2], 20.5 µM; in test [3], 9.22 µM and 19 µM; in test [4], 36.8 µM; in [5] it was 28 µM. The TGI in test [9] was 18.4 µM; in test [6], 21.9 µM; in test [7] it was 10.9 µM.
Consider `CC(Cn1c2c3ccccc3ccc2c2oc(=O)c3ccccc3c21)N(C)C` (stereo not given), for which the TGI in test [1], in [2], in [3], in test [4], in test [5] and in test [9] was > 100 µM in each case. Besides, in [7], the TGI is > 100 µM.
As to `O=C1C=CC(=O)c2c1ccc1c3ccccc3n(-c3ccccn3)c21`, the TGI in [8] was > 100 µM; in test [1] it was 35.3 µM; in [3], 87.9 µM; in test [4] it was 32.7 µM; in [5], > 100 µM; in [9], 29.8 µM. Also, the TGI in test [7] was 30.5 µM.
Regarding `CCCc1c2c([nH]c(=O)c1C)C(=O)c1[nH]c(=O)c(C)c(CCC)c1C2=O`, the TGI in test [8] is > 100 µM; in test [1], 58.3 µM; in test [2], 55.3 µM; in test [3], 17.3 µM; in test [4], 22.2 µM; in test [5] it was 57.4 µM. The TGI in [9] is 54.6 µM; in test [6], 17.6 µM; in [7], > 100 µM.
For the compound `COc1cccc(N2C(=O)c3c(c4[nH]c5ccccc5c4c4ccc(C(C)(C)C)cc34)C2=O)c1`, the TGI in test [8], in test [1], in test [2], in test [3], in [4] and in [5] was > 100 µM in each case. The TGI in test [9], in [6] and in [7] was > 100 µM each time.
Turning to `COc1ccc2[nH]cc(CCNC(C)=O)c2c1`, the TGI in test [1], in [2], in test [3], in test [4], in test [5] and in [9] was > 100 µM in each case. Moreover, the TGI in test [6] and in test [7] was > 100 µM each time.
Take `COC(=O)c1c[nH]cc1CCc1c[nH]cc1C(=O)OC`: the TGI in [8], in test [1], in test [2], in test [4], in test [5] and in test [9] was > 100 µM in each case. The TGI in test [7] is > 100 µM.
As to `CN(C)c1ccc(-c2cc(=O)c3ccccc3[nH]2)cc1`, the TGI in [8], in [1], in [2], in [3], in test [4] and in test [5] was > 100 µM in each case. Further, the TGI in test [7] is > 100 µM.
On to `O=C(O)c1ccc(S(=O)(=O)c2ccccc2)c([N+](=O)[O-])c1`, for which the TGI in test [8], in test [1], in test [2], in test [3], in [4] and in test [5] was > 100 µM throughout. Moreover, the TGI in test [9], in test [6] and in [7] was > 100 µM throughout.
With `CC[C@@H]1C[C@@H]2CN3CCc4c([nH]c5ccc(OC)cc45)C(COC(=O)c4ccc(OC)c(OC)c4)(C2)C13`, the TGI is 55.4 µM in test [8]; > 100 µM in test [1]; 27.6 µM in test [2]; 41.8 µM in test [3]; 38.8 µM in test [5]; > 100 µM in [9]. For the same compound, the TGI in [7] was determined as 97.2 µM.
`O=C(Cc1nc2ccccc2s1)C(=O)Nc1ccc(Cl)cc1`: the TGI in test [8], in test [1], in [2], in test [3], in test [4] and in [5] was > 100 µM in each case. Further, the TGI in [9], in [6] and in [7] was > 100 µM each time.
As for `CCCCCCCCCCCCCS(=O)(=O)O`, the TGI in test [8], in [1], in test [2], in test [3], in test [4] and in [5] was > 100 µM throughout. Moreover, the TGI in test [9], in [6] and in test [7] was > 100 µM throughout.
As for `CC(=O)Nc1ccc(/C=C(\NC(=O)c2ccccc2)c2nc3ccc4c(c3[nH]2)C(=O)c2ccccc2C4=O)cc1`, the TGI in test [8], in test [1], in [2], in test [3], in [4] and in test [5] was > 100 µM in each case. The TGI in test [9], in [6] and in test [7] was > 100 µM throughout.
As for `CC(=O)N1CCC2(C=Nc3ccccc32)CC1`, the TGI in [8], in test [1], in test [2], in test [3], in test [4] and in [5] was > 100 µM each time. Moreover, the TGI in test [9], in test [6] and in [7] was > 100 µM throughout.
In the case of `CSC(=S)c1ccc(C(=S)SC)cc1`, the TGI in [8], in [1], in test [2], in [3], in test [4] and in test [5] was > 100 µM throughout. For the same compound, the TGI in [9], in test [6] and in test [7] was > 100 µM in each case.
Regarding `C/C(=N\NC(=S)N1CCCCCC1)c1nccnc1C`, the TGI was > 100 µM in test [8]; > 100 µM in test [1]; > 100 µM in test [2]; 0.654 µM in test [3]; > 100 µM in [4]; > 100 µM in [9]. Besides, the TGI was 12.2 µM in test [6] and > 100 µM in [7].
With `Cn1ncc(=S)[nH]c1=S`, the TGI in [1], in [2], in test [3], in test [4], in [5] and in test [9] was > 100 µM in each case. The TGI in [7] was > 100 µM.
Take `CC(C)C(C(=O)O)N(CC1(O)OCC(O)C(O)C1O)N=O` (stereo not given): the TGI in [8], in [2], in [3], in [4], in test [5] and in test [6] was > 100 µM throughout. Further, the TGI in test [7] is > 100 µM.
For `CCN(CC)CCCN(c1cc(OC)cc2nccnc12)S(=O)(=O)c1ccc(C)cc1`, the TGI in test [8], in test [1], in test [2], in test [3], in test [4] and in test [5] was > 100 µM in each case. In addition, the TGI in [9], in test [6] and in [7] was > 100 µM in each case.
In the case of `O=C(Nc1ccc(Cl)c(C(F)(F)F)c1)C(=O)C(C(=O)/C=C/c1ccccc1)C1OC(=O)c2ccccc21` (stereo not given), the TGI in test [8], in test [1], in test [2], in test [3], in [4] and in test [5] was > 100 µM each time. Moreover, the TGI in [9] and in test [7] was > 100 µM throughout.
For the compound `CCNc1nnc(CSc2nc(-c3ccccc3)c(-c3ccccc3)[nH]2)s1`, the TGI was 43.8 µM in test [1]; 31.1 µM in test [2]; 35.7 µM in test [3]; 48.4 µM in test [4]; 65.3 µM in test [5]; > 100 µM in test [9]. Moreover, the TGI came out at 24.1 µM in test [6] and 56.5 µM in [7].
